# In patent US20150105252A1, “SUBSTITUTED PYRAZOLES AS HERBICIDES” (E I DU PONT DE NEMOURS AND COMPANY, priority 2013, published 2015):
# Columns and labels:
# pigweed [1] = test: Test C postemergence; format: in vivo, Amaranthus retroflexus; details: for Plant response rating (scale of 0 to 100 where 0 is no effect and 100 is complete control), Pigweed: Postemergence, 31 g ai/ha, visually evaluated after 13 to 15 days; for Pigweed plant response rating / Plant response rating, Pigweed: postemergence; for Pigweed plant response rating: 62 g ai/ha, scale 0 to 100
# From the text: (§1) Seeds of plant species selected from blackgrass (Alopecurus myosuroides), ryegrass, Italian (Italian ryegrass, Lolium multiflorum), wheat (winter wheat, Triticum aestivum), galium (catchweed bedstraw, Galium aparine), corn (Zea mays), crabgrass, large (large crabgrass, Digitaria sanguinalis), foxtail, giant (giant foxtail, Setaria faberii), johnsongrass (Sorghum halepense), lambsquarters (Chenopodium album), morningglory (Ipomoea coccinea), nutsedge, yellow (yellow nutsedge, Cyperus esculentus), pigweed (redroot pigweed, Amaranthus retroflexus), ragweed (common ragweed, Ambrosia elation), soybean (Glycine max), barnyardgrass (Echinochloa crus-galli), oilseed rape (Brassica napus), waterhemp (common waterhemp, Amaranthus rudis), oat, wild (wild oat, Avena fatua), kochia (Kochia scoparia), Surinam grass (Brachiaria decumbens), foxtail, green (green foxtail, Setaria viridis), goosegrass (Eleusine indica), bromegrass, downy (downy bromegrass, Bromus tectorum), nightshade (eastern black nightshade, Solanum ptycanthum), cocklebur (common cocklebur, Xanthium strumarium), cupgrass, woolly (woolly cupgrass, Eriochloa villosa), bermudagrass (Cynodon dactylon), sunflower, (common oilseed sunflower, Helianthus annuus), Russian thistle (Salsola kali), and velvetleaf (Abutilon theophrasti) were planted into a blend of loam soil and sand and treated preemergence with test chemicals formulated in a non-phytotoxic solvent mixture which included a surfactant.
# (§2) At the same time, plants selected from these crop and weed species and also chickweed (common chickweed, Stellaria media), canarygrass (littleseed canarygrass, Phalaris minor), and deadnettle (henbit deadnettle, Lamium amplexicaule), were planted in pots containing Redi-Earth® planting medium (Scotts Company, 14111 Scottslawn Road, Marysville, Ohio 43041) comprising spaghnum peat moss, vermiculite, wetting agent and starter nutrients and treated with postemergence applications of test chemicals formulated in the same manner. Plants ranged in height from 2 to 18 cm (1- to 4-leaf stage) for postemergence treatments. Treated plants and controls were maintained in a greenhouse for 13 to 15 days, after which time all species were compared to controls and visually evaluated. Plant response ratings, summarized in Table C, are based on a scale of 0 to 100 where 0 is no effect and 100 is complete control. A dash (-) response means no test result.
# wheat [2] = test: Test C preemergence; format: in vivo, Triticum aestivum; details: for Plant response rating (scale of 0 to 100), Wheat: Preemergence, 250 g ai/ha; for Wheat plant response rating / Plant response rating, Wheat: preemergence; for Plant response rating, Wheat: scale 0 to 100, 0 = no effect, 100 = complete control
# Procedure, shortened: (§3)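 Seeds sown in loam–sand blend and treated preemergence with test chemicals in non-phytotoxic solvent with surfactant; postemergence plants in peat-based medium, treated at 2–18 cm (1- to 4-leaf stage). Greenhouse 13 to 15 days, then visual rating versus controls, 0 (no effect) to 100 (complete control).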
# ryegrass, Italian = test: Test C preemergence; format: in vivo, Lolium multiflorum; details: for Plant response rating (scale of 0 to 100), Ryegrass, Italian: Preemergence, 250 g ai/ha; for Ryegrass, Italian plant response rating / Plant response rating, Ryegrass, Italian: preemergence; for Plant response rating, Ryegrass, Italian: scale 0 to 100, 0 = no effect, 100 = complete control
# Procedure, shortened: as §3
# pigweed [3] = test: Test A preemergence; format: in vivo, Amaranthus retroflexus; details: preemergence
# Procedure, shortened: (§4)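 After sowing in a sand–loam mix, pots received compound preemergence by directed soil spray, or postemergence once plants reached the one- to two-leaf stage (2–10 cm). Formulation contained surfactant in a non-phytotoxic solvent. Injury was scored visually after ~10 greenhouse days, 0–100 scale.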
# corn = test: Test C postemergence; format: in vivo, Zea mays; details: for Plant response rating (scale of 0 to 100 where 0 is no effect and 100 is complete control), Corn: Postemergence, 31 g ai/ha, visually evaluated after 13 to 15 days; for Corn plant response rating / Plant response rating, Corn: postemergence; for Corn plant response rating: 62 g ai/ha, scale 0 to 100
# From the text: as §1, §2
# soybean = test: Test C postemergence; format: in vivo, Glycine max; details: for Plant response rating (scale of 0 to 100 where 0 is no effect and 100 is complete control), Soybean: Postemergence, 31 g ai/ha, visually evaluated after 13 to 15 days; for Soybean plant response rating / Plant response rating, Soybean: postemergence; for Soybean plant response rating: 62 g ai/ha, scale 0 to 100
# From the text: as §1, §2
# chickweed = test: Test C postemergence; format: in vivo, Stellaria media; details: for Plant response rating (scale of 0 to 100 where 0 is no effect and 100 is complete control), Chickweed: Postemergence, 31 g ai/ha, visually evaluated after 13 to 15 days; for Chickweed plant response rating / Plant response rating, Chickweed: postemergence; for Chickweed plant response rating: 62 g ai/ha, scale 0 to 100
# From the text: as §1, §2
# wheat [4] = test: Test C postemergence; format: in vivo, Triticum aestivum; details: for Plant response rating (scale of 0 to 100 where 0 is no effect and 100 is complete control), Wheat: Postemergence, 31 g ai/ha, visually evaluated after 13 to 15 days; for Wheat plant response rating / Plant response rating, Wheat: postemergence; for Wheat plant response rating: 62 g ai/ha, scale 0 to 100
# Procedure, shortened: as §3
# velvetleaf = test: Test A preemergence; format: in vivo, Abutilon theophrasti; details: preemergence
# Procedure, shortened: as §4
# barnyardgrass = test: Test B flood; format: in vivo, Echinochloa crus-galli; details: 250 g ai/ha, visual rating on 0 to 100 scale (0 no effect, 100 complete control), 13 to 15 days
# Procedure, shortened: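 Response scored visually, 0–100 relative to controls, 13–15 days after the compound was applied into paddy water; plants were at the 2-leaf stage in pots kept flooded to 3 cm.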
# oilseed rape = test: Test C preemergence; format: in vivo, Brassica napus; details: for Plant response rating (scale of 0 to 100), Oilseed Rape: Preemergence, 250 g ai/ha; for Oilseed Rape plant response rating / Plant response rating, Oilseed Rape: preemergence; for Plant response rating, Oilseed Rape: scale 0 to 100, 0 = no effect, 100 = complete control
# Procedure, shortened: as §3
# johnsongrass = test: Test C postemergence; format: in vivo, Sorghum halepense; details: for Plant response rating (scale of 0 to 100 where 0 is no effect and 100 is complete control), Johnsongrass: Postemergence, 31 g ai/ha, visually evaluated after 13 to 15 days; for Johnsongrass plant response rating / Plant response rating, Johnsongrass: postemergence; for Johnsongrass plant response rating: 62 g ai/ha, scale 0 to 100
# Procedure, shortened: as §3
# ragweed = test: Test C postemergence; format: in vivo, Ambrosia elation; details: for Plant response rating (scale of 0 to 100 where 0 is no effect and 100 is complete control), Ragweed: Postemergence, 31 g ai/ha, visually evaluated after 13 to 15 days; for Ragweed plant response rating / Plant response rating, Ragweed: postemergence; for Ragweed plant response rating: 62 g ai/ha, scale 0 to 100
# Procedure, shortened: as §3
# galium = test: Test C preemergence; format: in vivo, Galium aparine; details: for Plant response rating (scale of 0 to 100), Galium: Preemergence, 250 g ai/ha; for Galium plant response rating / Plant response rating, Galium: preemergence; for Plant response rating, Galium: scale 0 to 100, 0 = no effect, 100 = complete control
# Procedure, shortened: as §3
# [5] = 250 g ai/ha, scale 0 to 100 (0 no effect, 100 complete control)
# [6] = 125 g ai/ha, scale 0 to 100, 0 no effect, 100 complete control
# [7] = 31 g ai/ha, visual rating, scale 0 to 100 (0 no effect, 100 complete control), 13 to 15 days
# [8] = 125 g ai/ha, scale 0 to 100, 0 is no effect, 100 is complete control
# [9] = 125 g ai/ha, visual injury, 0 to 100 scale, approx. 10 days
# [10] = 500 g ai/ha, visual injury after approx. 10 days, 0 to 100 scale (0 no effect, 100 complete control)
# [11] = 62 g ai/ha, scale 0 to 100 (0 no effect, 100 complete control), 13 to 15 days
structure (smiles),measurement,setting,value
CCc1cc(C(=O)NC2CC2)nn1Cc1ccnc(OC(F)F)c1 [Compound 98],"Plant response rating (scale of 0 to 100 where 0 is no effect and 100 is complete control), Pigweed",pigweed [1],10
same,Pigweed plant response rating,pigweed [1],10
same,"Plant response rating, Pigweed",pigweed [1]; [5],90
same,"Plant response rating, Pigweed",pigweed [1]; [6],30
same,"Plant response rating (scale of 0 to 100), Wheat",wheat [2],90
same,Wheat plant response rating,wheat [2]; [7],30
same,"Plant response rating, Wheat","wheat [2]; 62 g ai/ha, 13 to 15 days",45
same,Wheat plant response rating,wheat [2]; [8],70
same,"Plant response rating (scale of 0 to 100), Ryegrass, Italian","ryegrass, Italian",100
same,"Ryegrass, Italian plant response rating","ryegrass, Italian; [7]",30
same,"Plant response rating, Ryegrass, Italian","ryegrass, Italian; 62 g ai/ha, 13 to 15 days",80
same,"Ryegrass, Italian plant response rating","ryegrass, Italian; [8]",95
same,Pigweed plant response rating,pigweed [3]; [9],100
same,Pigweed plant response rating,pigweed [3]; [10],100
same,"Plant response rating (scale of 0 to 100 where 0 is no effect and 100 is complete control), Corn",corn,5
same,Corn plant response rating,corn,5
same,"Plant response rating, Corn",corn; [5],10
same,"Plant response rating, Corn",corn; [6],5
same,"Plant response rating (scale of 0 to 100 where 0 is no effect and 100 is complete control), Soybean",soybean,70
same,Soybean plant response rating,soybean,70
same,"Plant response rating, Soybean",soybean; [5],85
same,"Plant response rating, Soybean",soybean; [6],85
same,"Plant response rating (scale of 0 to 100 where 0 is no effect and 100 is complete control), Chickweed",chickweed,100
same,Chickweed plant response rating,chickweed,100
same,"Plant response rating, Chickweed",chickweed; [5],100
same,"Plant response rating, Chickweed",chickweed; [6],100
same,"Plant response rating (scale of 0 to 100 where 0 is no effect and 100 is complete control), Wheat",wheat [4],5
same,Wheat plant response rating,wheat [4],5
same,"Plant response rating, Wheat",wheat [4]; [5],20
same,"Plant response rating, Wheat",wheat [4]; [6],5
same,Velvetleaf plant response rating,velvetleaf; [9],100
same,Velvetleaf plant response rating,velvetleaf; [10],100
same,"Plant response rating, Barnyardgrass",barnyardgrass,0
same,"Plant response rating (scale of 0 to 100), Oilseed Rape",oilseed rape,100
same,Oilseed Rape plant response rating,oilseed rape; [7],100
same,"Plant response rating, Oilseed Rape","oilseed rape; 62 g ai/ha, 13 to 15 days",100
same,Oilseed Rape plant response rating,oilseed rape; [8],100
same,"Plant response rating (scale of 0 to 100 where 0 is no effect and 100 is complete control), Johnsongrass",johnsongrass,0
same,Johnsongrass plant response rating,johnsongrass,5
same,"Plant response rating, Johnsongrass",johnsongrass; [5],20
same,"Plant response rating, Johnsongrass",johnsongrass; [6],5
same,"Plant response rating (scale of 0 to 100 where 0 is no effect and 100 is complete control), Ragweed",ragweed,15
same,Ragweed plant response rating,ragweed,35
same,"Plant response rating, Ragweed",ragweed; [5],75
same,"Plant response rating, Ragweed",ragweed; [6],75
same,"Plant response rating (scale of 0 to 100), Galium",galium,100
same,Galium plant response rating,galium; [7],100
same,"Plant response rating, Galium","galium; 62 g ai/ha, 13 to 15 days",100
same,Galium plant response rating,galium; [8],100
CCOc1cc(C(=O)NC2CC2)nn1Cc1ccnc(OC(F)F)c1 [Compound 133],"Plant response rating (scale of 0 to 100 where 0 is no effect and 100 is complete control), Pigweed",pigweed [1],50
same,Pigweed plant response rating,pigweed [1],60
same,"Plant response rating, Pigweed",pigweed [1]; [5],90
same,"Plant response rating, Pigweed",pigweed [1]; [6],80
same,"Plant response rating (scale of 0 to 100), Wheat",wheat [2],90
same,Wheat plant response rating,wheat [2]; [7],0
same,Wheat plant response rating,wheat [2]; [11],45
same,"Plant response rating, Wheat","wheat [2]; 125 g ai/ha, 13 to 15 days",90
same,"Plant response rating (scale of 0 to 100), Ryegrass, Italian","ryegrass, Italian",95
same,"Ryegrass, Italian plant response rating","ryegrass, Italian; [7]",35
same,"Ryegrass, Italian plant response rating","ryegrass, Italian; [11]",85
same,"Plant response rating, Ryegrass, Italian","ryegrass, Italian; 125 g ai/ha, 13 to 15 days",90
same,Pigweed plant response rating,pigweed [3]; [9],100
same,Pigweed plant response rating,pigweed [3]; [10],100
same,"Plant response rating (scale of 0 to 100 where 0 is no effect and 100 is complete control), Corn",corn,10
same,Corn plant response rating,corn,10
same,"Plant response rating, Corn",corn; [5],35
same,"Plant response rating, Corn",corn; [6],10
same,"Plant response rating (scale of 0 to 100 where 0 is no effect and 100 is complete control), Soybean",soybean,85
same,Soybean plant response rating,soybean,75
same,"Plant response rating, Soybean",soybean; [5],95
same,"Plant response rating, Soybean",soybean; [6],95
same,"Plant response rating (scale of 0 to 100 where 0 is no effect and 100 is complete control), Chickweed",chickweed,50
same,Chickweed plant response rating,chickweed,60
same,"Plant response rating, Chickweed",chickweed; [5],85
same,"Plant response rating, Chickweed",chickweed; [6],70
same,"Plant response rating (scale of 0 to 100 where 0 is no effect and 100 is complete control), Wheat",wheat [4],5
same,Wheat plant response rating,wheat [4],5
same,"Plant response rating, Wheat",wheat [4]; [5],30
same,"Plant response rating, Wheat",wheat [4]; [6],15
same,"Plant response rating, Barnyardgrass",barnyardgrass,40
same,"Plant response rating (scale of 0 to 100), Oilseed Rape",oilseed rape,100
same,Oilseed Rape plant response rating,oilseed rape; [7],60
same,Oilseed Rape plant response rating,oilseed rape; [11],100
same,"Plant response rating, Oilseed Rape","oilseed rape; 125 g ai/ha, 13 to 15 days",100
same,"Plant response rating (scale of 0 to 100 where 0 is no effect and 100 is complete control), Johnsongrass",johnsongrass,5
same,Johnsongrass plant response rating,johnsongrass,5
same,"Plant response rating, Johnsongrass",johnsongrass; [5],5
same,"Plant response rating, Johnsongrass",johnsongrass; [6],5
same,"Plant response rating (scale of 0 to 100 where 0 is no effect and 100 is complete control), Ragweed",ragweed,25
same,Ragweed plant response rating,ragweed,25
same,"Plant response rating, Ragweed",ragweed; [5],85
same,"Plant response rating, Ragweed",ragweed; [6],75
same,"Plant response rating (scale of 0 to 100), Galium",galium,100
same,Galium plant response rating,galium; [11],95
same,"Plant response rating, Galium","galium; 125 g ai/ha, 13 to 15 days",98
